Reference: patent US20100209489A1, “Formulations of desvenlafaxine” (Supernus Pharmaceuticals, Inc., priority 2009, published 2010)
Like-named read-outs stand apart in the source and are kept apart here.

Experiments:
[1] = cited from earlier work
[2] = DI water, room temperature overnight
Procedure: All samples were prepared with DI water, pH 5.5. Controls were prepared similarly without the use of modulators. All test samples were mixed overnight at room temperature. The samples were then filtered and analyzed using HPLC-UV method.

CN(C)CC(c1ccc(O)cc1)C1(O)CCCCC1 (racemic) [desvenlafaxine]
adverse events and discontinuations ([1]; at higher doses (above 50 mg/day)): more frequent | efficacy in clinical studies ([1]; dose of 50-400 mg/day): effective | additional benefit in clinical studies ([1]; doses higher than 50 mg/day): no additional benefit

CN(C)CC(c1ccc(O)cc1)C1(O)CCCCC1.Cl.O (single isomer, unassigned; (-)) [(−)-O-desmethyl venlafaxine HCl monohydrate]
API Solubility ([2]; control without modulators, sample pH 5.2-5.5): 611 mg/mL | API Solubility ([2]; with Alginic acid, sample pH 2.4-2.7): 568 mg/mL | API Solubility ([2]; with Ascorbic acid, sample pH 2.7-3.0): 597 mg/mL | API Solubility ([2]; with Beta cyclodextrin, sample pH 5.2-5.5): 502 mg/mL | API Solubility ([2]; with Carbopol 941, sample pH 3.2-3.5): 587 mg/mL | API Solubility ([2]; with Citric acid, sample pH 2.1-2.4): 612 mg/mL | API Solubility ([2]; with Eudragit L100, sample pH 3.2-3.5): 547 mg/mL | API Solubility ([2]; with Fumaric acid, sample pH <1.8): 639 mg/mL | API Solubility ([2]; with Gelucire 44/14, sample pH 5.2-5.5): 521 mg/mL | API Solubility ([2]; with HPMCP, sample pH 2.7-3.0): 572 mg/mL | API Solubility ([2]; with Hydroxypropyl beta cyclodextrin, sample pH 5.5-5.7): 589 mg/mL | API Solubility ([2]; with Klucel LF, sample pH 5.5): 536 mg/mL | API Solubility ([2]; with Kollidone 25, sample pH 5.2-5.5): 610 mg/mL | API Solubility ([2]; with Kollidone/Tartaric acid, sample pH 2.1-2.4): 661 mg/mL | API Solubility ([2]; with Lactose, sample pH 5.2-5.5): 665 mg/mL | API Solubility ([2]; with Malic acid, sample pH 1.5-2.0): 677 mg/mL | API Solubility ([2]; with Maltrin M150/Xylitol/Sodium lauryl sulfate/Gelucire 44/14, sample pH 5.2-5.5): 432 mg/mL | API Solubility ([2]; with Maltrin M150, sample pH 5.2-5.5): 565 mg/mL | API Solubility ([2]; with Mannitol/Sorbitol/Tartaric acid/Eudragit L100, sample pH <1.8): 521 mg/mL | API Solubility ([2]; with Mannitol, sample pH 5.2-5.5): 613 mg/mL | API Solubility ([2]; with Methocel E5, sample pH 5.7): 504 mg/mL | API Solubility ([2]; with Methylcyclodextrin, sample pH 5.5): 561 mg/mL | API Solubility ([2]; with PEG 3350, sample pH 5.2-5.5): 602 mg/mL | API Solubility ([2]; with PEG 8000, sample pH 5.2-5.5): 569 mg/mL | API Solubility ([2]; with Poloxamer 188, sample pH 5.2-5.5): 552 mg/mL | API Solubility ([2]; with Sodium Docusate, sample pH 6.3-6.5): 539 mg/mL | API Solubility ([2]; with Sodium lauryl sulfate, sample pH 6.3-6.6): 524 mg/mL | API Solubility ([2]; with Sorbitol, sample pH 5.2-5.5): 549 mg/mL | API Solubility ([2]; with Tartaric acid, sample pH 1.5-2.0): 719 mg/mL | API Solubility ([2]; with Triethyl citrate, sample pH 5.2-5.5): 643 mg/mL | API Solubility ([2]; with Tween 80, sample pH 5.2-5.5): 544 mg/mL | API Solubility ([2]; with Vitamin E TPGS, sample pH 5.2-5.5): 535 mg/mL | API Solubility ([2]; with Xylitol, sample pH 5.2-5.5): 547 mg/mL | solubility (at about pH 6.0): less than 100 mg/mL | solubility (higher pH, close to the physiological pH): less than 1 mg/mL | solubility (low pH, for example pH 1.0): a few hundred
